Data set [1] has as its system human colon carcinoma cell line HCT116. As to the kind of experiment: cells. It counts as cell-based. To be noted: for GI50: Homo sapiens. As to the method: Cells plated at a density of 5,000 to 20,000 per well in 96-well microtiter plates were grown in RMPI 1640 containing 10% FBS, 100 U/mL penicillin and 100 μg/mL streptomycin, for 18 h at 37° C. in a humidified incubator with 5% CO2. Cells tested included ACHN, 786-0, HCT-116, SW620, SK-MEL-5, SK-MEL-28, A549, H322, OVCAR-3, SK-OV-3, MCF-7, MDA-MB-231, MOLT4, HL60, SNB-19, PC-3. Cells were treated with media containing chemotherapeutic drugs alone or with media containing chemotherapeutic drugs and a DNA-PK inhibitor of the invention, 1-(2-hydroxy-4-morpholin-4-yl-phenyl)-ethanone. Cells were incubated for two days before growth was measured using a tetrazolium dye assay (MTS). Chemotherapeutic drugs included bleomycin etoposide, vinblastine, doxorubicin, paclitaxel, cisplatin, chlorambucil, cyclophosphamide, 5-fluorouracil, cytosine-arabinoside, 6-mercaptoguanine and methotrexate (all purchased from Sigma). The drug concentration necessary to inhibit cell growth to 50% of untreated control cells was defined as the GI50.

The test system of data set [2] is Colon carcinoma cells (HCT116).
Data set [3] concerns the target T1, human DNA-PK (Homo sapiens, UniProt P78527).
T1 construct: The frozen HeLa cell pellet was thawed at 37° C. and immediately centrifuged; endogenous in cells; host or cells: HeLa S3 cells (ATCC CCL-2.2); Endogenous enzyme purified via S100-2 fraction, Q-Sepharose FF and SP-Sepharose FF (fraction IV)
The data set can be described thus: Standard DNA-PK assay (p53 peptide phosphorylation). Type of data set: biochemical. How it is done: Reactions were carried out at room temperature. Reactions were started by addition of ATP and stopped by application to phosphocellulose paper. Reaction products spotted onto phosphocellulose paper were washed five times with a total volume of at least 250 mL 10% acetic acid or 150 mM phosphoric acid. The paper was air dried and radioactivity was determined in a Beckman LS6000IC scintillation counter.

[4] abbreviates: with 1-(2-hydroxy-4-morpholin-4-yl-phenyl)-ethanone.
[5] abbreviates: read-out: IC50 (nM) DNA-PK Assay.

The record followed here is US8242115B2, “Materials and methods to potentiate cancer treatment” (Luitpold Pharmaceuticals, Inc., priority 2000, dated 2012).

Read-outs that look alike come from different tables or passages of the source.

For orientation: GI50 means the concentration giving 50% growth inhibition. With `COc1cc([C@@H]2c3cc4c(cc3[C@@H](O[C@@H]3O[C@@H]5CO[C@@H](C)O[C@H]5[C@H](O)[C@H]3O)[C@H]3COC(=O)[C@H]23)OCO4)cc(OC)c1O` [etoposide, reference compound], in data set [1] (HCT-116, with 1-(2-hydroxy-4-morpholin-4-yl-phenyl)-ethanone, read-out: GI50, in the presence of DNA-PK inhibitor), the GI50 came out at 14 µM. The GI50 in data set [1] (HCT-116, without DNA-PK inhibitor, read-out: GI50, chemotherapeutic drug alone) amounted to 120 µM. Besides, in data set [2] (24 h etoposide), the “LD50 of etoposide without DNA-PK inhibitor” value worked out at 1.1 µM and the “LD90 of etoposide without DNA-PK inhibitor” value stood at 2.9 µM. Moreover, in data set [2] (setting [4]), the “LD50 of etoposide with DNA-PK inhibitor” value came out at 0.075 µM and the “LD90 of etoposide with DNA-PK inhibitor” value was 0.9 µM.

Usually IC50 stands for the concentration that gives 50% inhibition. With `O=[N+]([O-])c1ccc(N2CCOCC2)cc1O` [Example 33, 5-Morpholin-4-yl-2-nitro-phenol], the 50% inhibitory concentration (IC50) in data set [3] (setting [5]) worked out at 2000 nM.

Take `COc1cc(N2CCOCC2)ccc1C=O` [Example 46 A, 2-Methoxy-4-morpholin-4-yl-benzaldehyde]: the IC50 in data set [3] (setting [5]) is 10000 nM.

For `C[C@@]12c3ccc4c(c3C(=O)c3occ(c31)C(=O)C[C@H]2O)CCC4=O` [demethoxyviridin, reference compound], the half-maximal inhibitory concentration (IC50) in data set [3] (standard kinase reaction, read-out: IC50, enzyme activity inhibited) was found to be 5 nM.

On to `CC(C)CC(=O)c1ccc(N2CCOCC2)cc1O` [Example 36, 1-(2-Hydroxy-4-morpholin-4-yl-phenyl)-3-methyl-butan-1-one], for which, in data set [3] (setting [5]), the IC50 came out at 150 nM.

Consider `COC(=O)c1cc(N2CCOCC2)ccc1O` [Example 47, 2-Hydroxy-5-morpholin-4-yl-benzoic Acid Methyl Ester], for which, in data set [3] (setting [5]), the IC50 is 40000 nM.

As for `N/N=C/c1ccc(N2CCOCC2)cc1O` [Example 49, 2-Hydrazonomethyl-5-morpholin-4-yl-phenol], the 50% inhibitory concentration (IC50) in data set [3] (setting [5]) was determined as 1000 nM.

On to `O=C(O)CCCc1ccc(N(CCCl)CCCl)cc1` [chlorambucil], for which the concentration for 50% growth inhibition (GI50) in data set [1] (HCT-116, read-out: GI50, chemotherapeutic drug alone) came to 120 µM; in data set [1] (HCT-116, read-out: GI50, in the presence of DNA-PK inhibitor), 14 µM.

The term melting point denotes the temperature of the solid-liquid transition. Consider `O=C(O)C(F)(F)F.O=C(O)c1ccc(CN2CCOCC2)cc1O` [Example 52, 2-Hydroxy-4-morpholin-4-ylmethyl-benzoic Acid Trifluoroacetate], for which the melting point was in the range of 138 to 146 °C.

As to `O=C(O)c1ccc(N2CCOCC2)cc1O` [Example 29, 2-Hydroxy-4-morpholin-4-yl-benzoic Acid], the IC50 in data set [3] (setting [5]) is 500 nM.

`CC(=O)c1cc(F)c(N2CCOCC2)cc1O` [Example 43 C, 1-(5-Fluoro-2-hydroxy-4-morpholin-4-yl-phenyl)-ethanone]: the half-inhibitory concentration (IC50) in data set [3] (setting [5]) was 1500 nM.

Regarding `CC(=O)c1ccc(N2CCOCC2)c(Cl)c1O` [Example 42 B, 1-(3-Chloro-2-hydroxy-4-morpholin-4-yl-phenyl)-ethanone], the IC50 in data set [3] (setting [5]) was 14000 nM.

Consider bleomycin, for which, in data set [1] (100 μM 1-(2-hydroxy-4-morpholin-4-yl-phenyl)-ethanone), the “GI50, in the presence of DNA-PK inhibitor” value is 3×10^−2 units/mL. Besides, the “GI50, chemotherapeutic drug alone” value in data set [1] (without DNA-PK inhibitor) is on record as 2×10^−1 units/mL.

For the compound `Nc1cc(N2CCNCC2)ccc1[N+](=O)[O-]` [Example 20, 2-Nitro-5-piperazin-1-yl-phenylamine], in data set [3] (setting [5]), the IC50 was 10000 nM.

Regarding `CC(=O)c1ccc(N2CCOCC2)c(F)c1O` [Example 43 D, 1-(3-Fluoro-2-hydroxy-4-morpholin-4-yl-phenyl)-ethanone], the IC50 in data set [3] (setting [5]) is 240 nM.

For the compound `O=C(c1ccc(N2CCOCC2)cc1O)C(F)(F)F` [Example 38, 2,2,2-Trifluoro-1-(2-hydroxy-4-morpholin-4-yl-phenyl)-ethanone], the IC50 in data set [3] (setting [5]) stood at 250 nM.

Regarding `O/N=C/c1ccc(N2CCOCC2)cc1O` [Example 48, 2-((Hydroxyimino)methyl)-5-morpholin-4-yl-phenol], the IC50 in data set [3] (setting [5]) is 1000 nM.

`COC(=O)c1ccc(N2CCOCC2)cc1O` [Example 30, 2-Hydroxy-4-morpholin-4-yl-benzoic Acid Methyl Ester]: the concentration for half-maximal inhibition (IC50) in data set [3] (setting [5]) is 500 nM.

On to `O=C(c1ccccc1)c1ccc(N2CCOCC2)cc1O` [Example 37, 1-(2-Hydroxy-4-morpholin-4-yl-phenyl)-1-phenyl-methanone], for which the IC50 in data set [3] (setting [5]) worked out at 120 nM.

Consider `Nc1cc(NN2CCOCC2)ccc1[N+](=O)[O-]` [Example 16, N^1-Morpholin-4-yl-4-nitrobenzene-1,3-diamine], for which the half-maximal inhibitory concentration (IC50) in data set [3] (setting [5]) came to 1000 nM.

Turning to `CCC(=O)c1ccc(N2CCOCC2)cc1O` [Example 35, 1-(2-Hydroxy-4-morpholin-4-yl-phenyl)-propan-1-one], the IC50 in data set [3] (setting [5]) stood at 120 nM.
